Results as given in US11161871B2, “Crystalline form of obeticholic acid and preparation method therefor” (Jiangsu Hengrui Medicine Co., Ltd., priority 2016, dated 2021).
Each block holds one molecule with its values, some of them ahead of it.

Tests used:
[1] = Stability of crystal form E spread flat in the air under lighting, heating and high humidity, purity by HPLC; assay type: physicochemical; conditions: for Purity detected by HPLC, 40° C.: heating 40° C.; for Purity detected by HPLC, 60° C.: heating 60° C.; for Purity detected by HPLC, RH 75%: high humidity RH 75%; for Purity detected by HPLC, RH 90%: high humidity RH 90%; for Purity detected by HPLC, Lighting: lighting 4500 Lux
Protocol: Samplings were carried out on Day 5 and Day 10.

[2] = Stability under placement condition (30° C., RH 65%), HPLC purity and X-ray powder diffraction; assay type: physicochemical; conditions: for Crystal form (X-ray powder diffraction) / Purity determined by HPLC: 30° C.
Protocol: Samplings were carried out on Day 5, Day 10, and Day 30.

[3] = Special stability study: grinding, heating, tableting (crystal form, DSC); assay type: physicochemical
[4] = Drying at 80° C. of crystal product crystallized with butyl acetate; assay type: physicochemical; conditions: crystal product from butyl acetate dried at 80° C.
[5] = placebo-controlled phase III clinical trial; cited from earlier work

Purity detected by HPLC, 40° C. ([1]; day 0): 99.7%
Purity detected by HPLC, 40° C. ([1]; day 5): 99.6%
Purity detected by HPLC, 40° C. ([1]; day 10): 99.5%
Purity detected by HPLC, 60° C. ([1]; day 0): 99.7%
Purity detected by HPLC, 60° C. ([1]; day 5): 99.4%
Purity detected by HPLC, 60° C. ([1]; day 10): 99.1%
Purity detected by HPLC, RH 75% ([1]; day 0): 99.7%
Purity detected by HPLC, RH 75% ([1]; day 5): 99.7%
Purity detected by HPLC, RH 75% ([1]; day 10): 99.7%
Purity detected by HPLC, RH 90% ([1]; day 0): 99.7%
Purity detected by HPLC, RH 90% ([1]; day 5): 99.6%
Purity detected by HPLC, RH 90% ([1]; day 10): 99.5%
Purity detected by HPLC, Lighting ([1]; day 0): 99.7%
Purity detected by HPLC, Lighting ([1]; day 5): 99.6%
Purity detected by HPLC, Lighting ([1]; day 10): 99.6%
Stability (in words) ([1]; lighting, high temperature and high humidity (summary statement)): stable
Stability (in words) ([1]; spread flat in the air, high temperature): slightly degraded
Stability (in words) ([1]; spread flat in the air, lighting/high humidity): good stability
Crystal form (X-ray powder diffraction) ([2]; Day 0): Crystal form E
Purity determined by HPLC ([2]; Day 0): 99.75%
Crystal form (X-ray powder diffraction) ([2]; Day 5): Crystal form E
Purity determined by HPLC ([2]; Day 5): 99.72%
Crystal form (X-ray powder diffraction) ([2]; Day 10): Crystal form E
Purity determined by HPLC ([2]; Day 10): 99.73%
Crystal form (X-ray powder diffraction) ([2]; Day 30): Crystal form E
Purity determined by HPLC ([2]; Day 30): 99.70%
Stability (in words) ([2]; placement condition 30° C., up to Day 30): stable under the placement condition
DSC peak ([3]; after grinding treatment for 10 minutes in a mortar under nitrogen): 94.3 °C
DSC peak ([3]; after heating treatment for 3 hours at 80° C.): 94.5 °C
DSC peak ([3]; after tableting treatment): 94.6 °C
Stability of the crystal form (in words) ([3]; ground, heated or tableted (grinding, pressure and heating)): the crystal form was stable
Compound: CC[C@H]1[C@@H](O)[C@@H]2[C@H](CC[C@]3(C)[C@@H]([C@H](C)CCC(=O)O)CC[C@@H]23)[C@@]2(C)CC[C@@H](O)C[C@@H]12 [Crystal form E, obeticholic acid]

Compound: CC[C@H]1[C@@H](O)[C@@H]2[C@H](CC[C@]3(C)[C@@H]([C@H](C)CCC(=O)O)CC[C@@H]23)[C@@]2(C)CC[C@@H](O)C[C@@H]12 [obeticholic acid]
Thermal stability on drying (colour change, degradation) [4]: unstable at 80 °C and has undergone degradation
Biomarkers associated with reduced risk of liver transplantation [5]: increases the level of two biomarkers associated with reduced risk of liver transplantation
